Results from patent US5210089A, “D-rhamnono-1,5-lactone” (Monsanto Company, priority 1992, dated 1993).

Key:
[1] = system: α-rhamnosidase (naringinase); assay: Naringinase assay with p-nitrophenyl α-L-rhamnoside; assay type: biochemical; conditions: for Inhibition (%) at 1 mM, α-rhamnosidase (naringinase): 1 mM compound, p-nitrophenyl α-L-rhamnoside 1.75 mM
Protocol: (§1) Melting points were recorded on a Kofler hot block. Proton nuclear magnetic resonance (δH) spectra were recorded on Varian Gemini 200 (at 200 MHz), Bruker WH 300 (300 MHz), or Bruker AM 500 (500 MHz) spectrometers. Carbon nuclear magnetic resonance (δC) spectra were recorded on a Varian Gemini 200 (50 MHz) or a Bruker 250 (62.9 MHz) spectrometer. Multiplicities were assigned using DEPT sequence on the Gemini and by off resonance decoupling on the Bruker. Spectra run in D2 O were referenced to methanol as an internal standard. All chemical shifts are quoted on the δ-scale. Infrared spectra were recorded on a Perkin-Elmer 297, or on a Perkin-Elmer 781 spectrophotometer. Mass spectra were recorded on VG Micromass 30F, ZAB lF, Masslab 20-250 or Trio-1 GCMS (DB-5 column) spectrometers using desorption chemical ionization (NH3 DCI), electron impact (EI), chemical ionization (NH3 CI) and fast atom bombardment (FAB) techniques, as stated. […] Concentrations were given in g/100 ml. Hydrogenations were run under an atmosphere of hydrogen gas maintained by inflated balloon. Microanalyses were performed by the microanalysis service of the DysonPerrins laboratory, Oxford UK. Thin layer chromatography (t.l.c.) was carried out on aluminum sheets coated with 60F254 silica. Plates were developed using either 5% v/v concentrated sulphuric acid in methanol, 0.2% w/v cerium (IV) sulphate and 5% ammonium molybdate in 2M sulphuric acid and 0.5% ninhydrin in methanol. Flash chromatography was carried out using Sorbsil C60 40/60 silica. Ion-exchange chromatography was performed using Dowex 50W-X8 (H) and Sigma CG 400 (Cl) resins. The resins were washed with 2M hydrochloric acid and 2M sodium hydroxide solution, respectively, and subsequently with distilled water, prior to use. Solvents and commercially available reagents were dried and purified before use according to standard procedures; dichloromethane was refluxed over and distilled from calcium hydride, N,N-dimethylformamide was distilled under reduced pressure from calcium hydride, methanol was distilled from magnesium methoxide, pyridine was distilled from, and stored over, potassium hydroxide and tetrahydrofuran was distilled from a purple solution of sodium benzophenone ketyl immediately before use. Hexane was distilled at 68° C. before use to remove involatile fractions. 2,3-O-Isopropylidene-L-gulono-1,4-lactone (9) [H. Ogura et al., J. Oro. Chem. 37, 72 (1972); G. W. J. Fleet Tetrahedron 45, 319 (1989)]and 2,3-O-isopropylidene-D-gulono-1,4-lactone (15) [L. M. Lerner et al., J. Org. Chem. 33, 1780 (1968)]were prepared from D- and L-Chem. gulonolactones [purchased from the Sigma Chemical Company] as reported previously. See, e.g., Fleet, U.S. Pat. No. 4,861,892. Human liver glycosidases were assayed in the absence and presence [1 mM] of each of the compounds using the appropriate buffered 4-methylumbellifeeryl-glycosides as substrates, as described previously. [B. Winchest et al., Biochem. J. 265, 277 (1990)]. Naringinase was assayed using pnitrophenyl α-L-rhamnoside (1.75 mM) as substrates, according to Romero [C. Romero et al., Anal. Biochem. 149, 566 (1985)].
(§2) The enzymes included human liver glycosidases and naringinase. The latter enzyme is a readily available endo-L-rhamnosidase described by Romero et al., Anal. Biochem. 149, 566 (1985).

[2] = molecular target: T1, cytosolic β-glucosidase (Homo sapiens, UniProt Q9H227); assay: Human liver glycosidase assay, cytosolic β-glucosidase; assay type: biochemical; conditions: for inhibition at 1000 µM: 1 mM compound; for IC50: read-out: I50, cytosolic β-glucosidase
T1 construct: human liver extracts; from tissue; host or cells: human liver extracts
T1 sequence (Q9H227 1-469): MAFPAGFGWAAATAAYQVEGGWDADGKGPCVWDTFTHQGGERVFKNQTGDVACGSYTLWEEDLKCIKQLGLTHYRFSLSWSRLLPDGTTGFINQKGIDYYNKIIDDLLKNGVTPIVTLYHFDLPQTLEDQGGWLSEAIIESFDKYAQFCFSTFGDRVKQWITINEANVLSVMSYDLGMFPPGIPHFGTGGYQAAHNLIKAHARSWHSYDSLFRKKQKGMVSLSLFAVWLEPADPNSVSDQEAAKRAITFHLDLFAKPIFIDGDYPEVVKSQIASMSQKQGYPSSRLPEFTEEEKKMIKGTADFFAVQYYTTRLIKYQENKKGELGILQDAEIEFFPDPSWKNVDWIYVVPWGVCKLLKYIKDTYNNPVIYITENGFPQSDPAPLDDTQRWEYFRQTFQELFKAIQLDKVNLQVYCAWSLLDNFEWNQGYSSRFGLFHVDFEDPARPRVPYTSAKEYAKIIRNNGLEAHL
Protocol: as §1, with “Chem. 33, 1780 (1968)]were prepared from D- and L-Chem. gulonolactones [purchased from the Sigma Chemical Company] as reported previously. See, e.g., Fleet, U.S. Pat. No. 4,861,892. Human liver glycosidases were assayed in the absence and presence [1 mM] of each of the compounds using the appropriate buffered 4-methylumbellifeeryl-glycosides as substrates, as described previously. [B. Winchest et al., Biochem. J. 265, 277 (1990)]. Naringinase was assayed using pnitrophenyl α-L-rhamnoside (1.75 mM) as substrates, according to Romero [C. Romero et al., Anal. Biochem. 149, 566 (1985)].” left out
as §2

[3] = molecular target: T2, β-mannosidase (Homo sapiens, UniProt O00462); assay: Human liver glycosidase assay, β-mannosidase; assay type: biochemical; design: human liver extracts; from tissue; host or cells: human liver extracts
T2 sequence (O00462 18-879): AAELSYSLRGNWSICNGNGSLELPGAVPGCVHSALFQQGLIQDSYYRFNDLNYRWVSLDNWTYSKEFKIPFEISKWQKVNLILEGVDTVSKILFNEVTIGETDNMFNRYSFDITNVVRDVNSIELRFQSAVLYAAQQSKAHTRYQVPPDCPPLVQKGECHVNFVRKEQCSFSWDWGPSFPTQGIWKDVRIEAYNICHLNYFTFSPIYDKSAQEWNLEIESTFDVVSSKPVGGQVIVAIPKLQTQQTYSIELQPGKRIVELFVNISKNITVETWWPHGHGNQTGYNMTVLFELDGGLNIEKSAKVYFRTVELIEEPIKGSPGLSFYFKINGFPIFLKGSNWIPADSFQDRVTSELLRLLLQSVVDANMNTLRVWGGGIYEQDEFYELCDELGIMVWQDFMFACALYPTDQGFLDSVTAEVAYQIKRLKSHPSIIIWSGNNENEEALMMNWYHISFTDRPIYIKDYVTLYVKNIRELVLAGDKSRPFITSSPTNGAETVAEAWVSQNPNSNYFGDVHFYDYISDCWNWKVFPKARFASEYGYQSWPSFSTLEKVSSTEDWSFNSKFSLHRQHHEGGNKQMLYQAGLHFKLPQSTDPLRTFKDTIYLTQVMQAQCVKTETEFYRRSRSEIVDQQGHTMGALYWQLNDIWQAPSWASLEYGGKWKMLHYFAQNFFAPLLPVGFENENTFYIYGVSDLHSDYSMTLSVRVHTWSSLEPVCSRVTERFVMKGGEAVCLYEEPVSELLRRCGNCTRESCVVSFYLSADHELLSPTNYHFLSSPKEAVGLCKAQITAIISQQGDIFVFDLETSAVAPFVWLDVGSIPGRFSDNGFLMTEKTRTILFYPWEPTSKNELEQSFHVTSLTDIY
Protocol: as §1, with “Chem. 33, 1780 (1968)]were prepared from D- and L-Chem. gulonolactones [purchased from the Sigma Chemical Company] as reported previously. See, e.g., Fleet, U.S. Pat. No. 4,861,892. Human liver glycosidases were assayed in the absence and presence [1 mM] of each of the compounds using the appropriate buffered 4-methylumbellifeeryl-glycosides as substrates, as described previously. [B. Winchest et al., Biochem. J. 265, 277 (1990)]. Naringinase was assayed using pnitrophenyl α-L-rhamnoside (1.75 mM) as substrates, according to Romero [C. Romero et al., Anal. Biochem. 149, 566 (1985)].” left out
as §2

[4] = system: rat epidodymal α-mannosidases; conditions: literature; cited from earlier work
[5] = system: apricot β-glucosidase; conditions: literature; cited from earlier work

Structure (SMILES) | Inhibition of α-rhamnosidase (in words) [1] | Inhibition (%) at 1 mM, α-rhamnosidase (naringinase) [1] [%] | inhibition at 1000 µM [2] [%] | IC50 [2] [µM] | Inhibition of β-mannosidase (in words) [3] | Inhibition of rat epididymal α-mannosidase (in words) [4] | Inhibition of apricot β-glucosidase (in words) [5] | IC50 [3] [µM] | inhibition at 1000 µM ([3]; read-out: Inhibition (%) at 1 mM, β-mannosidase) [%]
C[C@H]1NC(=O)[C@@H](O)[C@@H](O)[C@@H]1O [D-Rhamno-1,5-lactam (6), 6-Deoxy-D-mannono-δ-lactam] | not of α-rhamnosidase | 3 | 67 | 700 | inhibitor of α- and β-mannosidases |  |  |  | 
C[C@@H]1NC(=O)[C@H](O)[C@H](O)[C@H]1O [L-Rhamno-1,5-lactam (8), 6-Deoxy-L-mannono-δ-lactam] | no inhibitory activity | 0 |  |  | no inhibitory activity |  |  |  | 
O=C1N[C@H](CO)[C@@H](O)[C@H](O)[C@@H]1O [Mannono-1,5-lactam (2), D-mannonolactam] |  | 12 | 98 | 50 |  | powerful inhibitor | powerful inhibitor | 10 | 99
